Laboratory results from patent US9833433B1, “Compositions, methods of use, and methods of treatment” (priority 2013, dated 2017).

Columns and labels:
[1] = system: synaptophysin (Syn); test: Hippocampal synaptophysin expression (immunoblot); type: in vivo, mice; conditions: Δ^9-THC for 7 days
[2] = system: Akt, ERK, and p38MAPK; test: Phosphorylation of Akt, ERK and p38MAPK in NG108-15 cells; conditions: Δ^9-THC 30 μM
[3] = system: COX-2 mRNA; test: COX-2 mRNA by qPCR in NG108-15 cells; type: cell-based; conditions: culture transfected with the control vector; 6 hrs after Δ^9-THC
[4] = system: NF-κB; test: NF-κB phosphorylation in NG108-15 cells
[5] = system: synaptic release of glutamate; test: Miniature spontaneous EPSCs (mEPSCs) in cultured hippocampal neurons; type: cell-based; conditions: Δ^9-THC 3 μM; recorded 24 hrs after treatment
[6] = system: degenerated neurons; test: Degenerated neurons by Fluoro-Jade C staining in 5XFAD APP transgenic mice; type: in vivo; conditions: Δ^9-THC 3 mg/kg once daily for 4 weeks
Protocol: Degenerated neurons were detected using Fluoro-Jade C (FJC), which is an anionic dye that specifically stains the soma and neurites of degenerating neurons and thus is unique as a neurodegenerative marker. Cryostat cut sections were incubated in the solution with FJC (0.0001% solution, EMD Millipore) and DAPI (0.5 μg/ml) for 10 min, followed by 3×1-min wash with distilled water. Slices were dried naturally at room temperature without light. The images were taken using a Zeiss deconvolution microscope with SlideBook 5.0 software as described previously (Chen et al., 2012).

[7] = system: COX-2; test: Hippocampal COX-2 expression in mice (immunoblot); type: in vivo
[8] = system: EAAT1, EAAT2, and EAAT3; test: Hippocampal expression of glutamate transporters (immunoblot); conditions: Δ^9-THC 10 mg/kg once a day for 7 days
[9] = system: catalepsy; test: Bar test (catalepsy); type: in vivo, mice; conditions: Δ^9-THC 10 mg/kg; 30, 60, and 90 min after injection
Protocol: (§1) The classic Morris water maze and fear conditioning tests were performed to determine spatial and fear memory as described previously (Chen et al., 2012). The ‘open field’ test was conducted to detect the locomotor activity and the bar test was used to detect catalepsy (Egashira et al., 2007).
The cataleptic effect of Δ^9-THC was detected using the bar test as described previously with modification (Egashira et al., 2007; Pertwee and Wickens, 1991). Briefly, the front paws of each mouse were placed on an elevated rod (0.5 cm in diameter and 3.5 cm from the bottom of the test box) and the duration of time that the mouse kept motionless was determined. The test was conducted 30, 60, and 90 min after Δ^9-THC injection. Celebrex was injected 30 min prior to Δ^9-THC injection.

[10] = system: neprilysin (NEP); test: Neprilysin expression in 5XFAD APP transgenic mice (immunoblot); type: in vivo; conditions: TG mice
Protocol: Western blot assay was conducted using specific antibodies (Table S1) to determine expressions of COX-2, glutamate receptor subunits, PSD-95, G-protein subunits, phosphoproteins, BACE1 and neprilysin in hippocampal tissue and/or in cultured cells as described previously (Chen et al., 2012). Surface biotinylation assays were performed to determine surface expression of glutamate receptor subunits in hippocampal slices as described previously (Fan et al., 2010).

[11] = system: spatial memory; test: Morris water maze test (spatial memory); type: in vivo, mice; conditions: 10 mg/kg once a day for 7 days
Protocol: as §1
The classic Morris water maze test was used to determine spatial memory as described previously (Chen et al., 2012). A circular water tank (diameter 120 cm and 75 cm in high) was filled with water and the water was made opaque with non-toxic white paint. A round platform (diameter 15 cm) was hidden 1 cm beneath the surface of the water at the center of a given quadrant of the water tank. COX-2 KO and WT mice received training in the Morris water maze for 5 days without any treatments (naïve). […] For each trial, the mouse was released from the wall of the tank and allowed to search, find, and stand on the platform for 10 seconds within the 60-second trial period. […] During the probe test, the platform was removed from the pool, and the task performances were recorded for 60 seconds by a video-camera and the task performances, including swimming paths, speed, and time spent in each quadrant using an EthoVision video tracking system (Noldus). The time spent in each quadrant was analyzed.

[12] = system: hippocampal LTD; test: Hippocampal LTD induced by low-frequency stimulation at CA3-CA1 synapses; type: in vivo; conditions: single injection 10 mg/kg i.p.; LTD recorded 24 hrs later; WT mice P12 to P17
From the text: Field EPSP (fEPSP) recordings both at CA3-CA1 and perforant path synapses in response to stimuli at a frequency of 0.05 Hz were made using an Axoclamp-2B patch-clamp amplifier (Molecular Devices, CA) in bridge mode. Recording pipettes were pulled from borosilicate glass with a micropipette puller (Sutter Instrument), filled with artificial ACSF (2-4 MΩ). Hippocampal LTP at CA3-CA1 and perforant path synapses was induced by a theta-burst stimulation (TBS), consisting of a series of 10 bursts of 5 stimuli at 100 Hz (200 ms interburst interval, which was repeated three time (Fan et al., 2010; Hoffman et al., 2007; Chen et al., 2012). The input-output function was tested before recording of LTP, and the baseline stimulation strength was set to provide fEPSP with an amplitude of ˜30% from the subthreshold maximum derived from the input-output function. Hippocampal LTD was induced by low-frequency stimulation (900 stimuli at 1 Hz for 15 min) at CA3-CA1 synapses.

Q: With `CCCCCc1cc(O)c2c(c1)OC(C)(C)[C@@H]1CCC(C)=C[C@@H]21` [Δ^9-THC, Δ^9-tetrahydrocannabinol] as the compound, how does the synaptophysin expression [1] read?
A: did not alter expression of synaptophysin (Syn)

Q: What about the “phosphorylation of Akt, ERK, and p38MAPK” value [2] of the same compound?
A: induced phosphorylation of these signaling molecules

Q: And the “COX-2 mRNA expression in NG108-15 cells” value [3]?
A: increased expression of COX-2 mRNA

Q: And the NF-κB phosphorylation [4]?
A: induced NF-κB phosphorylation

Q: And the “synaptic release of glutamate (mEPSCs)” value [5]?
A: enhanced synaptic release of glutamate

Q: And the “numbers of degenerated neurons” value ([6]; absence of Celebrex)?
A: significantly reduced

Q: What about the “numbers of degenerated neurons” value ([6]; presence of Celebrex 1 mg/kg) of the same compound?
A: significantly reduced

Q: What about the “hippocampal COX-2 expression after cannabinoid injection” value ([7]; single i.p. injection, CP55,940 10 mg/kg, detected 4 hrs) of the same compound?
A: dose- and time-dependent induction of COX-2 in the brain

Q: And the “hippocampal COX-2 expression after repeated injections” value ([7]; Δ^9-THC 10 mg/kg i.p. once daily for 7 consecutive days, analyzed 24 hrs after last injection)?
A: steadily elevated

Q: What about the “expression of glutamate transporters” value [8] of the same compound?
A: down-regulated

Q: What about the cataleptic effect [9] of the same compound?
A: cataleptic and locomotor depressive effects

Q: What about the “expression of neprilysin (NEP)” value [10] of the same compound?
A: increases expression of neprilysin (NEP)

Q: What about the “spatial memory and memory retention after repeated Δ^9-THC” value [11] of the same compound?
A: impaired spatial memory and memory retention

Q: And the “hippocampal LTD after single exposure” value [12]?
A: impaired
